Source: publication PMC2854724, “In Vitro Screening of Environmental Chemicals for Targeted Testing Prioritization: The ToxCast Project” (Environmental Health Perspectives, 2009)

Key:
[1] = system: HepG2 (hepatocellular carcinoma cell line G2); experiment: HepG2 high-content cell-imaging assays (mitochondrial poison); type: cell-based, human
Excerpt: (§1) There are 467 cell-free or cell-based assays.

[2] = molecular target: T1, PPARα (Homo sapiens, UniProt Q07869); experiment: PPARα assays
T1 sequence (Q07869 1-468): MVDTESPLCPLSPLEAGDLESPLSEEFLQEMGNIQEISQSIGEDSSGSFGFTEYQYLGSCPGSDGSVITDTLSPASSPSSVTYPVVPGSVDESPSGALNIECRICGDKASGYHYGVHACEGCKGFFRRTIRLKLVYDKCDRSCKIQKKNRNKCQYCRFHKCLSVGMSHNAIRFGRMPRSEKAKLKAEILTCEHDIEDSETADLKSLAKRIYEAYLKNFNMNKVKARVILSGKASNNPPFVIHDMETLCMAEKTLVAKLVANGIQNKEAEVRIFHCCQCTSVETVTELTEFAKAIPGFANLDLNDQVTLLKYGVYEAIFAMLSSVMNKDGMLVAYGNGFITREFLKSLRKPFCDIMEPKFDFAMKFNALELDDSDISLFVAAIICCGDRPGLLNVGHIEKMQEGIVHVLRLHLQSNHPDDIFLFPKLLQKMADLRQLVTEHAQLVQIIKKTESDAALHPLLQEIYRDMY
Excerpt: as §1

[3] = system: MMP1; experiment: Cell-based assay, perturbation of MMP1 levels
Excerpt: as §1

[4] = molecular target: matrix metalloproteinase (MMP)3 (Homo sapiens, UniProt P08254); experiment: Cell-free HTS assay, direct interaction with MMP3; type: biochemical
Sequence of matrix metalloproteinase (MMP)3 (P08254 100-477): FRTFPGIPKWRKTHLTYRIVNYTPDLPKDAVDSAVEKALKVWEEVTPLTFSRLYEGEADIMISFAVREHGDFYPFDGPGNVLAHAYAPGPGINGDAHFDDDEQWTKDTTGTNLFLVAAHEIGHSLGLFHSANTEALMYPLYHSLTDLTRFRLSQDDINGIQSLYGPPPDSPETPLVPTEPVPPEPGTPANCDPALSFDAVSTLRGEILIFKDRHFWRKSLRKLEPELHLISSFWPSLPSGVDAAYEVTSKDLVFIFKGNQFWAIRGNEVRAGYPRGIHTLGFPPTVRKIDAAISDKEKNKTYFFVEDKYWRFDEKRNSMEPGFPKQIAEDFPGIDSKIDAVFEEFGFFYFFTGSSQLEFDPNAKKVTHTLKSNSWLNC
Excerpt: as §1

[5] = molecular target: T2, PPARγ (Homo sapiens, UniProt P37231); experiment: PPARγ assays
T2 sequence (P37231 1-505): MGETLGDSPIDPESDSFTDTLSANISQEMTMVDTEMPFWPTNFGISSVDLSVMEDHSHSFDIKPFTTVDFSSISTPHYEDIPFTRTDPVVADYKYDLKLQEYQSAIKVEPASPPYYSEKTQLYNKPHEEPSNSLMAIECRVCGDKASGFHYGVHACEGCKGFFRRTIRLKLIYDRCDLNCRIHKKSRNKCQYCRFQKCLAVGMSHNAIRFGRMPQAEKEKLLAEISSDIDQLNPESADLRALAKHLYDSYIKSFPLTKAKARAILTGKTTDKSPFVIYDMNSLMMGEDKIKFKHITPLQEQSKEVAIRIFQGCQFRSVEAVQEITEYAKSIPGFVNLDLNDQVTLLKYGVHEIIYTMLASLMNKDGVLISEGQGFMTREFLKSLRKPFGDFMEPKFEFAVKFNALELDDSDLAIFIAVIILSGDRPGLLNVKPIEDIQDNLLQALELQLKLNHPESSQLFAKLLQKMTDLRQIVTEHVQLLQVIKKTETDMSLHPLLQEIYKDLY
Excerpt: We screened the chemical library using nine separate assay technologies, with assays run in concentration–response format and in some cases with multiple time points. Assays encompass both direct, primary interactions between chemicals and molecular targets and downstream cellular events such as gene expression. […] There are 467 cell-free or cell-based assays. Assay sets include biochemical HTS and cell-based HTS assays measuring direct molecular interactions with specific protein targets; high-content cell-imaging assays measuring complex cellular phenotypes; a multiplexed gene expression assay for xenobiotic metabolizing enzymes and transporters in human primary hepatocytes; multiplexed transcription factor reporter assays; multiplexed biological activity profiling assays measuring biomarkers in a variety of human primary cell cocultures; assays measuring effects of phase I and II xenobiotic metabolizing enzyme (XMEs) on cytotoxicity; an HTS genotoxicity assay; and a real-time cellular impedance assay that measures the kinetics of cell growth and changes in morphology. For all cell-based assays, time points were selected on the basis of studies conducted during the assay development and were considered optimal for the end point being evaluated.
A total of 624 in vitro assay end points (including multiple time points) were measured for each chemical, generating > 200,000 concentration responses. […] In all cases we report a characteristic micromolar concentration for each chemical–assay combination.

[6] = system: MMP9; experiment: Cell-based assay, perturbation of MMP9 levels
Excerpt: as §1

[7] = molecular target: MMP13 (Homo sapiens, UniProt P45452); experiment: Cell-free HTS assay, direct interaction with MMP13; type: biochemical
Excerpt: as §1

Structure (SMILES)	Mitochondrial poison activity in HepG2 high-content cell imaging [1]	Activity in PPARα assays [2]	Activity in PPARγ assays [5]	other results
CO/C=C(/C(=O)OC)c1ccccc1Oc1cc(Oc2ccccc2C#N)ncn1 [Azoxystrobin]	active mitochondrial poisons			
O=C(O)C(F)(F)C(F)(F)C(F)(F)C(F)(F)C(F)(F)C(F)(F)C(F)(F)F [PFOA, perfluorooctanoic acid]		active		
O=S(=O)(O)C(F)(F)C(F)(F)C(F)(F)C(F)(F)C(F)(F)C(F)(F)C(F)(F)C(F)(F)F [PFOS, perfluorooctane sulfonic acid]		all but PFOS were also active	positive	AC50 [3]: 13.3 µM; AC50 [4]: 14.6 µM; AC50 [6]: 4.4 µM; AC50 [7]: 32.4 µM
CCCCC(CC)COC(=O)c1ccccc1C(=O)OCC(CC)CCCC (centres unmarked) [diethylhexyl phthalate]		active	positive	
CO/N=C(/C1=NOCCO1)c1ccccc1Oc1ncnc(Oc2ccccc2Cl)c1F [fluoxastrobin]	active mitochondrial poisons			
CCOC(=O)C(C)OC(=O)c1cc(Oc2ccc(C(F)(F)F)cc2Cl)ccc1[N+](=O)[O-] (centres unmarked) [lactofen]		active	positive	
COC(=O)N(OC)c1ccccc1COc1ccn(-c2ccc(Cl)cc2)n1 [pyraclostrobin]	active mitochondrial poisons			
